Source: EP0848957A1, “Fas LIGAND SOLUBILIZATION INHIBITOR” (KANEBO LTD., priority 1995, dated 1997)

How the values were obtained:
[1] = tested on: hFas L/BHK-21 (BHK-21 cells in which human Fas L cDNA was transfected); experiment: Test for inhibition of Fas L solubilization (sFas L in culture supernatant by sandwich-ELISA); format: cell-based; conditions: for inhibition at 5 µM: Homo sapiens, BHK-21, 24 h, incubated 24 hours at 37°C, read-out: aFas L secretion inhibition rate (%); for IC50: BHK-21, sFas L secretion inhibition at 5, 2.5, 1.25, 0.625 µM, probit method
Method: hFas L/BHK-21 (BHK-21 cells in which human Fas L cDNA was transfected)(3.5 x 10^5) was suspended in 1ml of RPMI 1640 culture medium containing 10% fetal bovine serum, and in 24 wells culture plate (Falcon 3047, Becton Dickenson Co., Ltd.) each test sample adjusted with RPMI 1640 containing 10% fetal bovine serum at the final concentration 5, 2.5, 1.25, and 0.625 µM was incubated under 5% carbon dioxide atmosphere at 37°C for 24 hours, to obtain a culture supernatant.
The concentration of sFas L in the supernatant thus obtained was quantitatively analyzed by the sandwich-ELISA method as shown below.
The concentration of anti Fas L antibody (NOK3)(see preparation 17) was adjusted to 10µg/ml with 0.05M sodium carbonate-sodium hydrogen carbonate buffer solution (pH 9.6), and each 50µl thereof was poured in each well of a 96-wells microplate (Immunolon 2, Dinatech Co., Ltd.) and left it overnight at 4°C to make the solid phase. Each well was washed twice with 300 µl of a washing solution consisting of a physiological saline solution adjusted at pH 7.4 with a phosphate buffer solution, containing 0.05% of Tween 20 (polyoxyethylene sorbitan monolaurate)(abbreviated as T-PBS), and then to it was added 300µl of PBS (pH 7.4) containing bovine serum albumin (abbreviated as BSA, Wako Chemical Co., Ltd), and it was left for 2 hours at 37°C to remove the supernatant.
Then, the culture supernatant (50µl) containing a test sample were added to each well, and incubated for one hour at room temperature. After incubation, each well was washed twice with 300µl of T-PBS (pH7.4).
The concentration of anti Fas L antibody (NOK1) labeled with biotin (see preparation 18) was adjusted to 5µg/ml by diluting with PBS (pH 7.4) containing 1% BSA, and 50µl thereof was added to the solution prepared above. The solution was reacted for one hour at room temperature, and washed twice with 300µl of T-PBS (pH 7.4).
And then, streptoavidin-peroxidase (Amasham Lab.) was diluted 1000 times with PBS (pH 7.4) containing 1% of BSA, and 50µl thereof was added to it. The solution was incubated for 30 minutes at room temparature and was washed twice with 300µ of T-PBS (pH 7.4).
Further, 100µl of 0.15M citric acid-sodium phosphate buffer solution (pH 5.0) containing hydrogen peroxide and o-phenylenediamine (former concentration:0.015 w/v%, latter concentration:0.2mg/ml) was added to each well and incubated for 10 minutes at room temperature.
After incubation, 50µl of 2 N sulfuric acid was added to each well to quench the reaction, and the absorbance at 490 nm was measured by Softmax (Molecular Device Co., Ltd.)
On the other hand, by measuring the absorbance of the sFas L solution of which the concentration was known, as a sample instead of the culture supernatant, the calibration curve was detected based on 4-logistic parameter analysis, and based on it the concentration (X) of sFas L in the culture supernatant was calculated.
As a control, by using the concentration (A) of sFas L in the culture supernatant in case that the test sample was not added, based on the concentration (X) of sFas L in the culture supernatant in case that the sample was added, sFas secretion inhibition rate (%) at 5µM was calculated by using the following formula sFas L secretion inhibition rate (%) = (1-X/A) x 100 [formula]

GVHD induced mouse [2] = experiment: Recovery test of GVHD induced mouse; format: in vivo, CBF1 mice; conditions: 2mg / mouse / day subcutaneously every day for 2 weeks
Method: CBF1 mice (F1 mice of BALB/c and C57BL/6) were injected with splenocytes (5x10^7) of C57BL/6 mouse, and a week later were again injected with splenocytes 5x10^7 to induce GVHD into a mouse.
A test sample was suspended in 0.5% CMC solution (test sample 10mg vs the CMC solution 1ml), 2mg of the test sample / mouse / day was subcutaneously administered every day for 2 weeks beginning from injection of splenocytes to the above GVHD induced mice, and this group was compared with the GVHD induced group in which any test sample was not administered (no drug administered group) and the GVHD non-induced group (non-treated group).
The body weight of mice (g) was measured every week a week later after the first injection of splenocytes, for 6 weeks, and the total IgE amount (ng/ml) was measured every week a week later after the first injection of splenocytes, for 9 weeks, and the degree of GVHD was evaluated by change of day.

GVHD induced mouse [3] = experiment: Prevention of the mortality of GVHD induced mouse; format: in vivo, CBF1 mouse; conditions: splenocytes 1x10^8; after the death of all mice of the drug non-administered group; 3 weeks observation
Method: GVHD was introduced into CBF1 mouse in the same manner as in Test example 2, except for the numbers of the injected splenocytes, 1x10^8, and the test sample administered group was compared with the drug non-administered group and the non-treated group.
The effect of test samples was evaluated by the mortality of mouse for 3 weeks after the first introduction of the splenocytes.

[4] = Toxicity after oral administration (mortality); format: in vivo; conditions: 3,000mg/kg:body weight, orally administered
Method: And a compound of the generic formula (I) or its pharmaceutically acceptable salt was low in toxicity. For example, when compound 4a ( 3,000mg/kg:body weight) was orally administered, the mortality was not found. Therefore, a compound of the generic formula (I) or its pharmaceutically acceptable salt is useful for preventing and treating the diseases in which apoptosis caused by binding the solubilized Fas L with Fas is considered to participate, for example, fulminant hepatitis, GVHD, AIDS, autoimmune diseases, etc.

Row | SMILES | inhibition at 5 µM [1] | IC50 [1] | further results
1 | CNC(=O)[C@H](Cc1ccc(OC)cc1)NC(=O)[C@@H](CC(=O)NO)CC(C)C [Test sample A, [4-(N-hydroxyamino)-2(R)-isobutylsuccinyl]-L-O-methyltyrosine-N-methylamide] | 47% | – | –
2 | CNC(=O)[C@H](Cc1ccccc1)NC(=O)[C@H](CC(C)C)[C@H](CSc1ccccc1)C(=O)NO [Test sample B, [4-(N-hydroxyamino)-2(R)-isobutyl-3(S)-phenylthiomethylsuccinyl]-L-phenylalanine-N-methylamide] | > 70% | 2200 nM | –
3 | CNC(=O)[C@H](Cc1ccc(OC)cc1)NC(=O)[C@H](CC(C)C)[C@H](C)C(=O)NO [Test sample C, [4-(N-hydroxyamino)-2(R)-isobutyl-3(S)-methylsuccinyl]-L-O-methyltyrosine-N-methylamide] | > 70% | 1500 nM | –
4 | CNC(=O)[C@H](Cc1ccccc1)NC(=O)[C@H](CC(C)C)[C@H](CSc1cccs1)C(=O)NO [Test sample D, [4-(N-hydroxyamino)-2(R)-isobutyl-3(S)-(2-thienylthiomethyl)succinyl]-L-phenylalanine-N-methylamide] | > 70% | 1600 nM | –
5 | CNC(=O)[C@@H](NC(=O)[C@H](CC(C)C)[C@H](C)C(=O)NO)c1ccccc1 [Test sample E, [4-(N-hydroxyamino)-2(R)-isobutyl-3(S)-methylsuccinyl]-L-phenylglycine-N-methylamide] | 29% | – | decrease of body weight caused by the induced GVHD (GVHD induced mouse [2]; body weight measured weekly for 6 weeks): clearly prohibited; increase of total IgE amount caused by the induced GVHD (GVHD induced mouse [2]; total IgE measured weekly for 9 weeks): clearly prohibited; survival rate (GVHD induced mouse [3]): 90%; mortality [4]: not found
6 | CNC(=O)[C@@H](NC(=O)[C@@H](CC(=O)NO)CC(C)C)c1ccc2ccccc2c1 [Test sample F, [4-(N-hydroxyamino)-2(R)-isobutylsuccinyl]-L-2-naphthylglycine-N-methylamide] | 35% | – | –
7 | NS(=O)(=O)c1ccc(CCNC(=O)[C@H](CC2CCCCC2)NC(=O)[C@H](CCCc2ccccc2)CC(=O)NO)cc1 [Test sample G, [4-(N-hydroxyamino)-2(R)-(3-phenylpropyl)succinyl]-L-3-cyclohexylalanine-N-[2-(4-sulfonylamidophenyl)ethyl]amide] | > 70% | 1100 nM | –
8 | CNC(=O)[C@H](Cc1cccc2c1CCCC2)NC(=O)[C@H](CC(C)C)C(C)C(=O)NO (stereo partly drawn) [Test sample H, [4-(N-hydroxyamino)-2(R)-isobutyl-3-methylsuccinyl]-L-3-(5,6,7,8-tetrahydro-1-naphthyl)alanine-N-methylamide] | 57% | – | –
9 | CNC(=O)[C@H](Cc1cccc2ccccc12)NC(=O)[C@H](CC(C)C)C(C)C(=O)NO (stereo partly drawn) [Test sample I, [4-(N-hydroxyamino)-2(R)-isobutyl-3-methylsuccinyl]-L-3-(1-naphthyl)alanine-N-methylamide] | 50% | – | –
